Experimental data reported in ChEMBL document CHEMBL3045009, “Synthesis and Biological Activity of the Functional Derivatives of 3- and 4-(Dimethyl-aminomethyl)-1,2-dithiolanes” (1992).

Columns and labels:
Assay type in all cases: functional
Chilo suppressalis [1] = test: Insecticidal activity against Chilo suppressalis (rice stem borer) assessed as mortality at 50 ug/g administered as topical application
Culex pipiens molestus = test: Insecticidal activity against Culex pipiens molestus assessed as mortality at 5 ppm; conditions: Culex pipiens
Tetranychus urticae = test: Acaricidal activity against Tetranychus urticae (two-spotted spider mite) assessed as mortality at 500 ppm; conditions: Tetranychus urticae
Chilo suppressalis [2] = test: Insecticidal activity against Chilo suppressalis (rice stem borer) assessed as mortality compound administered as topical application
Nilaparvata lugens = test: Insecticidal activity against Nilaparvata lugens (brown planthopper) assessed as mortality at 50 ppm; conditions: Nilaparvata lugens
Spodoptera litura = test: Insecticidal activity against Spodoptera litura assessed as mortality at 500 ppm; conditions: Spodoptera litura

SMILES	mortality (Chilo suppressalis [1]) [%]	mortality at 5 ppm (Culex pipiens molestus) [%]	mortality at 500 ppm (Tetranychus urticae) [%]	LD50 (Chilo suppressalis [2]) [mg/kg]	mortality at 50 ppm (Nilaparvata lugens) [%]	mortality at 500 ppm (Spodoptera litura) [%]
CN(C)C[C@@H]1CCSC(C#N)(c2ccc(Cl)cc2)S1.O=C(O)C(=O)O (mixture of isomers)	100	90	100	20.7	90	0
CN(C)C(CSC(N)=O)CSC(N)=O.Cl [CARTAP HYDROCHLORIDE]	100	100	37	2.3	100	35
CN(C)C1CSSC1.O=C(O)C(=O)O [NEREISTOXIN HYDROGEN OXALATE]	100	100	50	1.7	100	30
CN(C)C1CS[S+]([O-])C1.O=C(O)C(=O)O (centres undefined) [NEREISTOXIN MONOXIDE HYDROGEN OXALATE]	100	50	60	5.8	100	30
